# Tests used:
# Body weight gain in mice = conditions: test compounds 60 mg/kg s.c., prednisolone 10 mg/kg i.p., once a day for 6 days (Days 0-5), average ± standard deviation
# Protocol: Accordingly, for assessing the side-effect each of the following test compounds an action on body weight gains was examined.
# Next the mice were measured for their body weight. Each body weight gain was calculated on Days 5, 7 and 10 post-administration based on the body weight just prior to administration.
# [1] = system: guinea pig allergic rhinitis models; test: Allergic rhinitis model: nasal airway resistance; assay type: in vivo, Guinea pigs; conditions: 15 mg/kg s.c. one hour prior to rhinitis-induction; N=5; recorded 20 minutes after antigen-challenge
# Protocol: Guinea pigs (male, Std:Hartley, 3 weeks old) were housed and fed in a aluminum cage at a rate of up to 5 animals per cage. After acclimatization for 1 week, the guinea pigs were administered intravenously with an anti-ovalbumin antibody (Nihon Bioresearch Inc., Hajima Institute; antibody titer by a 3-hour homologous passive cutaneous anaphylaxis reaction, 1 : 8192) prepared according to the Orange & Moore method (Orange, R. P. and Moore, E. G., The Journal of Immunology 116: p.392-397, 1976) into their auricle vein at a dose of 0.3 mL/animal for passive sensitization. Twenty four to twenty six hours after sensitization under conditions of fast and free access to drinking water, the sensitized guinea pigs were anesthetized with urethane (1.2 g/kg, intraperitoneal administration), fixed in a supine position, and mediad excised cervically to expose tracheas. […] Variations of the ventilatory overflow were quantitatively recorded on a recticoder (RECTI-HORIZ-8K, Nippon Denki Sanei K.K.) for 20 minutes after antigen-challenge.
# Wave height (cm) was measured on recorded papers and a nasal airway resistance value was calculated according to the following formula: Percent Increase (%) in Nasal Airway Resistance =((Observed Value) - (Value prior to Administration))/((Complete Obstruction)- (Value prior to Administration))× 100 [formula] […]
# allergic peritonitis = test: Allergic peritonitis induced with ovalbumin (peritoneal exudate cells); assay type: in vivo, Balb/c mice; conditions: ovalbumin challenge
# Protocol: Twenty four hours after induction, mice were sacrificed under ether […] and each penitoneal cavity was lavaged twice or thrice with a washout medium (total volume: 5 mL, physiological saline containing 10 units/mL of heparin). Peritoneal exudate cells (PEC) were harvested in a siliconized glass tube. The retrieved washout medium was measured for its yield (mL) and the number of exudate cells therein by using Turk solution and counting on a haemocytometer and a total number of PEC was calculated. An aliquot thereof (an extent of approximately 20,000 cells of PEC) was taken. Specimens for staining were prepared using Cytospin 3 (CHANDON), and PEC was stained with Dif-Quick solution (International Reagents Corporation). After staining, PEC was subjected to fractional counts under a microscope with classification into eosinophils, neutrophils, lymphocytes/macrophages and basophils based on their form and stain nature (more than 500 PEC per specimen were randomly counted). […] After counting, intraperitoneal exudation inhibition rates were calculated by the following formula and expressed as the therapeutic efficacies: Inhibition Rate (%) =[1 -((PEC in Sensitized/Drug-Treated Mouse) - (PEC in Unsensitized/Saline-Treated Mouse))/((PEC in Sensitized/Saline-Treated Mouse) - (PEC in Unsensitized/Saline-Treated Mouse))]× 100 [formula]
# A physiological saline solution containing ovalbumin (0.25 mg/mL) and an aluminum hydroxide gel (4 mg/mL) was administered subcutaneously to male Balb/c mice (7 weeks old, 20 to 23 g, purchased from JAPAN SLC, Inc.) twice at one week interval at a single dose of 0.4 mL for sensitization. On Day 14 after the initial sensitization, an antigen solution for induction (2.5 µg/mL) was administered intraperitoneally to each animal at a dose of 0.4 mL to raise allergic peritonitis. Compound No. 130 (30 mg/kg) or a negative control solvent, physiological saline (10 mL/kg), was administered intraperitoneally to each animal 5 minutes prior to induction, 3 and 6 hours post-induction.
# Similarly to Example 24, the peritoneal cavities were lavaged to retrieve PEC. The drained liquids were measured for their yield and total PEC number therein. In the same manner as in Example 24, PEC was stained and subjected to fractional counting under a microscope based on their form. […] Similarly to Example 24, basophils and neutrophils were excluded from subjects to be examined. In the same manner as in Example 24, intraperitoneal exudation inhibition rates were calculated and expressed as the therapeutic efficacies.
# In the same manner as in Example 25, male Balb/c mice were sensitized with ovalbumin and an aluminum hydroxide gel, and, on Day 14 after the initial sensitization, treated with an antigen solution to raise allergic peritonitis. Compound No. […]
# Similarly to Example 24, the peritoneal cavities were lavaged to retrieve PEC 24 hours after induction. The drained liquids were measured for their yield and total PEC number therein.
# [2] = 30 mg/kg i.p. 5 minutes prior to induction, 3 and 6 hours post-induction
# [3] = 30 mg/kg s.c. 6 hours and 5 minutes prior to induction, 24 hours after induction
smiles,measurement,setting,value
"CNC(=O)[C@H](Cc1ccc(NC(=N)N)cc1)NC(=O)[C@H](CC(C)C)C(CCCc1ccccc1)C(=O)NO (single isomer, unassigned) [Compound No. 130, N-[4-(N-Hydroxyamino)-2(R)-isobutyl-3(R or S)-(3-phenyltrimethylene)succinyl)-L-4'-guanidophenylalanine-N-methylamide 1 acetate]","Body Weight Gain, Observation Day 5",Body weight gain in mice; non-administered 0.50± 0.23,0.57± 0.61
same,"Body Weight Gain, Observation Day 7",Body weight gain in mice; non-administered 0.80± 0.48,0.77± 0.55
same,"Body Weight Gain, Observation Day 10",Body weight gain in mice; non-administered 1.07± 0.58,1.20± 0.26
same,increase in nasal airway resistance due to antigen challenge (FIG. 15),[1],markedly ameliorates an increase in nasal airway resistance
same,inhibition of infiltration of eosinophils into the peritoneal cavity,allergic peritonitis; [2],56.3%
same,inhibition of infiltration of lymphocytes/macrophages into the peritoneal cavity,allergic peritonitis; [2],74.9%
same,reduction of total PEC numbers,allergic peritonitis; [2],70.7%
same,inhibition of infiltration of eosinophils into the peritoneal cavity,allergic peritonitis; [3],38.6%
same,inhibition of infiltration of lymphocytes/macrophages into the peritoneal cavity,allergic peritonitis; [3],91.2%
same,reduction of total PEC numbers,allergic peritonitis; [3],68.5%

# Source: EP1101492A1, “NOVEL REMEDIES FOR ALLERGIC DISEASES” (FUJI YAKUHIN KOGYO KABUSHIKI KAISHA, priority 1998, dated 2000)
